Experimental data published in patent US20240083857A1, “2-Methyl-Quinazolines” (Bayer Pharma Aktiengesellschaft, priority 2017, published 2024).

Experiments:
[1] = target: human SOS1 (nucleotide exchange of K-Ras^G12C) (Homo sapiens, UniProt Q07889); experiment: Biochemical assay 2: K-Ras^G12C activation assay by hSOS1 at high GTP concentration (HTRF); settings: high GTP; read-out: Assay 2 (KRAS-Activation by SOS high GTP) activity expressed as IC50
[2] = target: K-Ras^G12C : hSOS1 interaction (Homo sapiens, UniProt Q07889); experiment: Biochemical assay 1: K-Ras^G12C interaction assay with hSOS1 (HTRF); type: binding; settings: for IC50: read-out: Assay 1 (KRAS-SOS Interaction) activity expressed as IC50
[3] = target: human SOS1 (loading of human K-Ras^G12C-GDP with fluorescent GTP-analog) (Homo sapiens, UniProt Q07889); experiment: Biochemical assay 3: K-Ras^G12C activation assay by hSOS1 (HTRF); settings: no GTP; for IC50: read-out: Assay 3 (KRAS-Activation by SOS no GTP) activity expressed as IC50; for inhibition at 20 µM: read-out: Assay 3 (KRAS-Activation by SOS no GTP) activity expressed as % inhibition at 20 μM

Row | SMILES | IC50 [1] | IC50 [2] | IC50 [3] | inhibition at 20 µM ([2]; read-out: Assay 1 (KRAS-SOS Interaction) activity expressed as % inhibition at 20 μM) | inhibition at 20 µM [3]
1 | CCCOc1ccccc1-c1cccc([C@@H](C)Nc2nc(C)nc3cc(OC)c(OC)cc23)c1 [Example 102, 6,7-dimethoxy-2-methyl-N-[(1R)-1-(2′-propoxybiphenyl-3-yl)ethyl]quinazolin-4-amine] | 3560 nM | 6380 nM | 11500 nM | – | –
2 | COc1cc2nc(C)nc(N[C@H](C)c3cccc(-c4ccccc4C(=O)N(C)C)c3)c2cc1OC [Example 103, 3′-{(1R)-1-[(6,7-dimethoxy-2-methylquinazolin-4-yl)amino]ethyl}-N,N-dimethylbiphenyl-2-carboxamide] | 2480 nM | 1440 nM | 2740 nM | – | –
3 | COCc1ccccc1-c1cccc([C@@H](C)Nc2nc(C)nc3cc(OC)c(OC)cc23)c1 [Example 104, 6,7-dimethoxy-N-{(1R)-1-[2′-(methoxymethyl)biphenyl-3-yl]ethyl}-2-methylquinazolin-4-amine] | 1900 nM | 1820 nM | 2520 nM | – | –
4 | COc1cc2nc(C)nc(N[C@H](C)c3cccc(-c4ccc5c(ccn5C)c4)c3)c2cc1OC [Example 105, 6,7-dimethoxy-2-methyl-N-{(1R)-1-[3-{1-methyl-1H-indol-5-yl)phenyl]ethyl}quinazolin-4-amine] | 1390 nM | 2400 nM | 2770 nM | – | –
5 | COc1cc2nc(C)nc(N[C@H](C)c3cccc(-c4cccc(C(=O)N(C)C)c4)c3)c2cc1OC [Example 106, 3′-{(1R)-1-[(6,7-dimethoxy-2-methylquinazolin-4-yl)amino]ethyl}-N,N-dimethylbiphenyl-3-carboxamide] | 1530 nM | 1410 nM | 2050 nM | – | –
6 | COc1cc2nc(C)nc(N[C@H](C)c3cccc(-c4ccc(CO)s4)c3)c2cc1OC [Example 107, [5-(3-{(1R)-1-[(6,7-dimethoxy-2-methylquinazolin-4-yl)amino]ethyl}phenyl)thiophen-2-yl]methanol] | 467 nM | 319 nM | 438 nM | – | –
7 | COc1cc2nc(C)nc(N[C@H](C)c3cccc(-c4ccncc4C)c3)c2cc1OC [Example 108, 6,7-dimethoxy-2-methyl-N-{(1R)-1-[3-(3-methylpyridin-4-yl)phenyl]ethyl}quinazolin-4-amine] | 901 nM | 821 nM | 1230 nM | – | –
8 | COc1cc2nc(C)nc(N[C@H](C)c3cccc(-c4ccc5cc[nH]c5c4)c3)c2cc1OC [Example 109, N-{(1R)-1-[3-(1H-indol-6-yl)phenyl]ethyl}-6,7-dimethoxy-2-methylquinazolin-4-amine] | 392 nM | 1000 nM | 1410 nM | – | –
9 | COc1cc2nc(C)nc(N[C@H](C)c3cccc(-c4cccc5[nH]ccc45)c3)c2cc1OC [Example 110, N-{(1R)-1-[3-(1H-indol-4-yl)phenyl]ethyl}-6,7-dimethoxy-2-methylquinazolin-4-amine] | 908 nM | 1040 nM | 1190 nM | – | –
10 | COc1ncc(-c2cccc([C@@H](C)Nc3nc(C)nc4cc(OC)c(OC)cc34)c2)cn1 [Example 111, 6,7-dimethoxy-N-{(1R)-1-[3-(2-methoxypyrimidin-5-yl)phenyl]ethyl}-2-methylquinazolin-4-amine] | 1670 nM | 2100 nM | 3340 nM | – | –
11 | COc1cc2nc(C)nc(N[C@H](C)c3cccc(-c4cccc(S(C)(=O)=O)c4)c3)c2cc1OC [Example 112, 6,7-dimethoxy-2-methyl-N-{(1R)-1-[3′-(methylsulfonyl)biphenyl-3-yl]ethyl}quinazolin-4-amine] | 948 nM | 696 nM | 1120 nM | – | –
12 | COc1cc2nc(C)nc(N[C@H](C)c3cccc(-c4ccc5c(c4)CCO5)c3)c2cc1OC [Example 113, N-{(1R)-1-[3-(2,3-dihydro-1-benzofuran-5-yl)phenyl]ethyl}-6,7-dimethoxy-2-methylquinazolin-4-amine] | 839 nM | 1350 nM | 2100 nM | – | –
13 | COc1cc2nc(C)nc(N[C@H](C)c3cccc(/C=C/c4ccccc4)c3)c2cc1OC [Example 114, 6,7-dimethoxy-2-methyl-N-[(1R)-1-{3-[(E)-2-phenylethenyl]phenyl}ethyl]quinazolin-4-amine] | 2390 nM | 5280 nM | 9210 nM | – | –
14 | COc1cc2nc(C)nc(N[C@H](C)c3cccc(-c4ccc(C(=O)N(C)C)cc4)c3)c2cc1OC [Example 115, 3′-{(1R)-1-[(6,7-dimethoxy-2-methylquinazolin-4-yl)amino]ethyl}-N,N-dimethylbiphenyl-4-carboxamide] | 802 nM | 865 nM | 1570 nM | – | –
15 | C/C=C/c1cccc([C@@H](C)Nc2nc(C)nc3cc(OC)c(OC)cc23)c1 [Example 116, 6,7-dimethoxy-2-methyl-N-[(1R)-1-{3-[(1E)-prop-1-en-1-yl]phenyl}ethyl]quinazolin-4-amine] | 1150 nM | 1080 nM | 1720 nM | – | –
16 | COc1cc2nc(C)nc(N[C@H](C)c3cccc(C4=CCCC4)c3)c2cc1OC [Example 117, N-{(1R)-1-[3-(cyclopent-1-en-1-yl)phenyl]ethyl}-6,7-dimethoxy-2-methylquinazolin-4-amine] | 1350 nM | 1650 nM | 3080 nM | – | –
17 | COc1cc2nc(C)nc(N[C@H](C)c3cccc(-c4cccc(NS(C)(=O)=O)c4)c3)c2cc1OC [Example 118, N-(3′-{(1R)-1-[(6,7-dimethoxy-2-methylquinazolin-4-yl)amino]ethyl}biphenyl-3-yl)methanesulfonamide] | 481 nM | 529 nM | 774 nM | – | –
18 | COc1cc2nc(C)nc(N[C@H](C)c3cccc(-c4ccccc4NC(C)=O)c3)c2cc1OC [Example 119, N-(3′-{(1R)-1-[(6,7-dimethoxy-2-methylquinazolin-4-yl)amino]ethyl}biphenyl-2-yl)acetamide] | 1280 nM | 858 nM | 1480 nM | – | –
19 | COc1cc2nc(C)nc(N[C@H](C)c3cccc(-c4ccccc4S(C)(=O)=O)c3)c2cc1OC [Example 120, 6,7-dimethoxy-2-methyl-N-{(1R)-1-[2′-(methylsulfonyl)biphenyl-3-yl]ethyl}quinazolin-4-amine] | 2020 nM | 1590 nM | 3530 nM | – | –
20 | COc1cc2nc(C)nc(N[C@H](C)c3cccc(-c4ccccc4NS(C)(=O)=O)c3)c2cc1OC [Example 121, N-(3′-{(1R)-1-[(6,7-dimethoxy-2-methylquinazolin-4-yl)amino]ethyl}biphenyl-2-yl)methanesulfonamide] | 679 nM | 452 nM | 791 nM | – | –
21 | COc1cc2nc(C)nc(N[C@H](C)c3cccc(-c4cccc(OCc5ccccc5)c4)c3)c2cc1OC [Example 123, N-{(1R)-1-[3′-(benzyloxy)biphenyl-3-yl]ethyl}-6,7-dimethoxy-2-methylquinazolin-4-amine] | 13100 nM | – | – | 52% | 42%
22 | COc1cc2nc(C)nc(N[C@H](C)c3cccc(-c4cc(Cl)cc(Cl)c4)c3)c2cc1OC [Example 124, N-[{1R)-1-(3′,5′-dichlorobiphenyl-3-yl)ethyl]-6,7-dimethoxy-2-methylquinazolin-4-amine] | 9300 nM | 18300 nM | – | – | 37%
23 | COc1cc2nc(C)nc(N[C@H](C)c3cccc(-c4ccc5c(c4)OCCO5)c3)c2cc1OC [Example 125, N-{(1R)-1-[3-(2,3-dihydro-1,4-benzodioxin-6-yl)phenyl]ethyl}-6,7-dimethoxy-2-methylquinazolin-4-amine] | 1090 nM | 2030 nM | 2040 nM | – | –
24 | COc1cc2nc(C)nc(N[C@H](C)c3ccc(C#N)cc3)c2cc1OC [Example 189, 4-{(1R)-1-[(6,7-dimethoxy-2-methylquinazolin-4-yl)amino]ethyl}benzonitrile] | 1170 nM | 998 nM | 2760 nM | – | –
25 | COc1cc2nc(C)nc(NC(C)c3cc(Br)cc4c3OCC4)c2cc1OC (stereo not drawn) [Example 225, N-[1-(5-bromo-2,3-dihydro-1-benzofuran-7-yl)ethyl]-6,7-dimethoxy-2-methylquinazolin-4-amine] | 2270 nM | 1540 nM | 4680 nM | – | –
26 | COc1cc2nc(C)nc(NC(C)c3ccc(-c4ccccc4CNCC(N)=O)s3)c2cc1OC (stereo not drawn) [Example 279, 2-[2-(5-{1-[(6,7-dimethoxy-2-methylquinazolin-4-yl)amino]ethyl}thiophen-2-yl)-benzyl]glycinamide] | 168 nM | 176 nM | 160 nM | – | –
27 | COc1cc2nc(C)nc(NC(C)c3ccc(-c4ccccc4CNCC(=O)N(C)C)s3)c2cc1OC (stereo not drawn) [Example 280, 2-[2-(5-{1-[(6,7-dimethoxy-2-methylquinazolin-4-yl)amino]ethyl}thiophen-2-yl)benzyl]-N,N-dimethylglycinamide] | 120 nM | 148 nM | 135 nM | – | –
28 | CNC(=O)CNCc1ccccc1-c1ccc(C(C)Nc2nc(C)nc3cc(OC)c(OC)cc23)s1 (stereo not drawn) [Example 282, 2-[2-(5-{1-[(6,7-dimethoxy-2-methylquinazolin-4-yl)amino]ethyl}thiophen-2-yl)benzyl]-N-methylglycinamide] | 265 nM | 257 nM | 212 nM | – | –
29 | COCCNC(=O)CNCc1ccccc1-c1ccc(C(C)Nc2nc(C)nc3cc(OC)c(OC)cc23)s1 (stereo not drawn) [Example 283, 2-[2-(5-{1-[(6,7-dimethoxy-2-methylquinazolin-4-yl)amino]ethyl}thiophen-2-yl)benzyl]-N-(2-methoxyethyl)glycinamide] | 371 nM | 418 nM | 344 nM | – | –
